Reference: patent US20090263410A1, “USE OF TGF-B1 INHIBITOR PEPTIDES IN THE PREPARATION OF AN IMMUNE RESPONSE MODULATING AGENT” (Proyecto De Biomedicina Cima, S.L., priority 2005, published 2009)

System: RAd-LacZ
Test: Induction of anti-RAd LacZ antibodies (ELISA) after immunization with heat-inactivated adenovirus
Format: in vivo, BALB/c mice
Procedure: To analyse the immunomodulating effect of peptide p144 on the humoral response, female BALB/c mice (Harlan, Barcelona) were used, of between 6 and 8 weeks old. For the induction of specific antibodies, recombinant adenovirus (RAd-LacZ) inactivated by heat in a bath at 100° C. for 10 minutes was inoculated.
Three mice were immunized per group, by the intraperitoneal of a mixture of 200 μl which contained 1×10^8 pfu of the inactivated RAd-LacZ adenovirus, physiological serum (PS) or with […] of peptide p144, all emulsified in Freund's complete adjuvant (FCA) in a 1:1 volumetric ratio as indicated in table M4. Thirty days after the first immunization, the animals were reimmunized with the same mixture, but emulsified in Freund's incomplete adjuvant (FIA). Blood samples were taken from the retroorbital plexus on days 15 and 45 to quantify the anti-adenovirus antibodies generated in each animal.
In order to study the possible induction of antigen intolerance in the mice treated with p144, on day 50 after the I^st injection, the mice were inoculated intravenously with 4×10^8 pfu of active RAd-LacZ in 100 μl of RPMI-1640, including a new group of mice (cont iv), which had only received the intravenous dose of active LacZ adenovirus. Blood samples were taken after 7 days in all groups. Next, the animals were sacrificed to include liver samples in OCT® (Tissue-Tek®, SAKURA, the Netherlands) to the subsequent evaluation of LacZ expression in the liver.
The detection of antibodies in serum against RAd-LacZ was performed by ELISA assays using Maxisorp® flat-bottomed 96-well plates (Nunc, Roskilde, Denmark), based on the streptavidin-biotin system using 2,2′-azino-bis-3-ethylbenzthiazoline-6-sulphonic acid (ABTS) as developer. The plates were incubated throughout the night at 4° C. with 50 μl per well of a solution of 75 μl of RAd-LacZ 10^10 pfu/ml in 10 ml 0.1 M Na2CO3 (pH=10.5). […] 100 μl per well were added and after one hour the plate was read at 405 nm in a Multiskan Plus MKII reader (Labsystem, Helsinki, Finland).

Substance: p144: peptide inhibiting TGF-β1 whose amino acid sequence corresponds to SEQ ID NO: 1 (TSLDASIIWAMMQN; Synthetic Construct from human TGB-Beta1 type III receptor.Domain730-743)
- antibody titer after intravenous infection with active RAd LacZ (7 days after 4×10^8 pfu RAd LacZact i.v., no p144 at challenge, versus group immunized without p144): approximately equalled
- anti-RAd LacZ antibody production after first immunization (day 15, RAd LacZinact in presence or absence of p144, ELISA): no quantifiable effect
- antibody titer against RAd LacZ after second immunization (p144 50 μg in immunization mixture, versus inactivated RAd LacZ only): clearly lower
